{"source": "patent US20050192182A1", "about": "“Herbicidal mixtures based on substituted aryl ketones” (priority 2001, published 2005)", "key": {"Amaranthus retroflexus": {"tested_on": "Amaranthus retroflexus", "test": "Post-emergence greenhouse spray test", "type": "in vivo", "conditions": "about 3 weeks", "method": "(§1) The required amount of active compound or formulation is dissolved in a few milliliters (2-3 ml) of the solvent (acetone or DMF), an emulsifier (1 ml) is added, if required, and the mixture is diluted with water to the desired concentration.\n(§2) Mixtures are prepared by mixing a predetermined dissolved amount of the first active compound with the required amount of the second active compound (and, if desired, with additional active compounds/formulations or other ingredients), and then diluting the mixture with water to the desired concentration.\n(§3) In pre- and post-emergence experiments, a surfactant (Renex 36) is usually added, at a concentration of 0.1%, to the spray solution.\n(§4) The amount of active compound or formulation is chosen such that the desired application rate per ha is achieved.\n(§5) Test plants are grown under controlled conditions (temperature and light). Once the plants have reached a height of 5-15 cm, the test compound or the combination of test compounds is applied by spraying such that the particular amounts of active compound desired are applied per unit area. The concentration of the spray liquor is chosen such that the desired amounts of active compound are in each case applied in 500 1 of water/ha.\n(§6) After the spray application, the vessels containing the plants are stored in a greenhouse under constant conditions with respect to light and temperature.\n(§7) After about 3 weeks, the degree of damage to the plants is rated in % damage in comparison to the development of the untreated control.\n(§8) The figures denote: • 0%=no damage (like untreated control) • 100%=total destruction/damage • a.i.=active ingredient Flufenacet Tested as 60 WG • (I-31)/(I-34) tested as active compounds • * values calculated according to Colby"}, "Solanum nigrum": {"tested_on": "Solanum nigrum", "test": "Post-emergence greenhouse spray test", "type": "in vivo", "conditions": "about 3 weeks", "method": "as §1, §2, §3, §4, §5, §6, §7, §8"}, "Abutilon theophrasti": {"tested_on": "Abutilon theophrasti", "test": "Post-emergence greenhouse spray test", "type": "in vivo", "conditions": "about 3 weeks", "method": "as §1, §2, §3, §4, §5, §6, §7, §8"}, "Chenopodium album": {"tested_on": "Chenopodium album", "test": "Post-emergence greenhouse spray test", "type": "in vivo", "conditions": "about 3 weeks", "method": "as §1, §2, §3, §4, §5, §6, §7, §8"}, "ELTTP": {"tested_on": "ELTTP", "test": "Test in transplanted paddy rice (greenhouse), water-surface application", "type": "in vivo, Elatine", "conditions": "3 weeks after application", "description": "(§9) Test in Transplanted Paddy Rice\n(§10) To produce a preparation of active compound, 1 part by weight of an active compound combination according to the invention is mixed with the stated amount of solvent and, after addition of the stated amount of emulsifier, diluted with water to the desired concentration.\n(§11) Vessels for planting (500 cm^2) are filled with soil from a rice field. In each case 3 rice plants (cultivar: Nipponbare, 2-3-leaf stage, height: about 15 cm) are planted into the center of the vessels for planting. Seeds of Cyperus, Echinochloa, Lindernia, Rotala and Elatine are sown into the same vessels for planting. The soil in the vessels is kept moist. After two days, each vessel for planting is flooded to a water depth of 2-3 cm.\n(§12) Five days after the transplanting of the rice plants, the amount of active compound in the preparation described above is applied to the surface of the water in the vessels for planting using a pipette. The water depth in the vessels for planting is kept at 2-3 cm.\n(§13) 3 weeks after the application of active compound, the efficacy is rated in % damage in comparison to the untreated control.\n(§14) The figures denote • 0% no effect/damage (like untreated control) • 100% total destruction"}, "LIDPY": {"tested_on": "LIDPY", "test": "Test in transplanted paddy rice (greenhouse), water-surface application", "type": "in vivo, Lindernia", "conditions": "3 weeks after application", "description": "as §9, §10, §11, §12, §13, §14"}, "ROTIN": {"tested_on": "ROTIN", "test": "Test in transplanted paddy rice (greenhouse), water-surface application", "type": "in vivo, Rotala", "conditions": "3 weeks after application", "description": "as §9, §10, §11, §12, §13, §14"}, "Digitaria sanguinalis": {"tested_on": "Digitaria sanguinalis", "test": "Post-emergence greenhouse spray test", "type": "in vivo", "conditions": "about 3 weeks", "method": "as §1, §2, §3, §4, §5, §6, §7, §8"}, "CYPDI": {"tested_on": "CYPDI", "test": "Test in transplanted paddy rice (greenhouse), water-surface application", "type": "in vivo, Cyperus", "conditions": "135 g/ha, 3 weeks after application", "description": "as §9, §10, §11, §12, §13, §14"}, "ECHSS": {"tested_on": "ECHSS", "test": "Test in transplanted paddy rice (greenhouse), water-surface application", "type": "in vivo, Echinochloa", "conditions": "135 g/ha, 3 weeks after application", "description": "as §9, §10, §11, §12, §13, §14"}}, "data": [{"smiles": "O=C1CC[C@@H](COc2c(Br)ccc(C(=O)C3C(=O)CCCC3=O)c2Br)N1", "note": "[Example I-31, (5S)-5-[[2,6-dibromo-3-[(2,6-dioxo-1-cyclohexyl)-carbonyl]-phenoxy]-methyl]-2-pyrrolidinone]", "values": [{"measurement": "Amaranthus retroflexus observed (% damage)", "setting": "Amaranthus retroflexus; 8 g of ai/ha", "result": 0, "unit": "%"}, {"measurement": "Amaranthus retroflexus observed (% damage)", "setting": "Amaranthus retroflexus; 15 g of ai/ha", "result": 0, "unit": "%"}, {"measurement": "Amaranthus retroflexus observed (% damage)", "setting": "Amaranthus retroflexus; 30 g of ai/ha", "result": 0, "unit": "%"}, {"measurement": "Solanum nigrum observed (% damage)", "setting": "Solanum nigrum; 30 g of ai/ha", "result": 10, "unit": "%"}, {"measurement": "Abutilon theophrasti observed (% damage)", "setting": "Abutilon theophrasti; 15 g of ai/ha", "result": 0, "unit": "%"}, {"measurement": "Abutilon theophrasti observed (% damage)", "setting": "Abutilon theophrasti; 30 g of ai/ha", "result": 10, "unit": "%"}, {"measurement": "Chenopodium album observed (% damage)", "setting": "Chenopodium album; 15 g of ai/ha", "result": 0, "unit": "%"}, {"measurement": "Chenopodium album observed (% damage)", "setting": "Chenopodium album; 30 g of ai/ha", "result": 20, "unit": "%"}]}, {"smiles": "Cn1nnn(CCOc2c(Cl)ccc(C(=O)C3C(=O)CCCC3=O)c2Cl)c1=O", "note": "[Example I-22, 2-[2,4-dichloro-3-[2-(4-methyl-5-oxo-4,5-dihydro-1H-tetrazol-1-yl)-ethoxy]-benzoyl]-1,3-cyclohexanedione]", "values": [{"measurement": "efficacy in % damage, Compound (I) alone", "setting": "ELTTP; 30 g/ha", "result": 60, "unit": "%"}, {"measurement": "efficacy in % damage, Compound (I) alone", "setting": "LIDPY; 30 g/ha", "result": 70, "unit": "%"}, {"measurement": "efficacy in % damage, Compound (I) alone", "setting": "ROTIN; 30 g/ha", "result": 70, "unit": "%"}]}, {"smiles": "O=C1CC[C@@H](COc2c(Cl)ccc(C(=O)C3C(=O)CCCC3=O)c2Cl)N1", "note": "[Example I-34, (5S)-5-[[2,6-dichloro-3-[(2,6-dioxo-1-cyclohexyl)-carbonyl]-phenoxy]-methyl]-2-pyrrolidinone]", "values": [{"measurement": "Amaranthus retroflexus observed (% damage)", "setting": "Amaranthus retroflexus; 15 g of ai/ha", "result": 0, "unit": "%"}, {"measurement": "Amaranthus retroflexus observed (% damage)", "setting": "Amaranthus retroflexus; 30 g of ai/ha", "result": 0, "unit": "%"}, {"measurement": "Digitaria sanguinalis observed (% damage)", "setting": "Digitaria sanguinalis; 15 g of ai/ha", "result": 0, "unit": "%"}, {"measurement": "Digitaria sanguinalis observed (% damage)", "setting": "Digitaria sanguinalis; 30 g of ai/ha", "result": 0, "unit": "%"}, {"measurement": "Chenopodium album observed (% damage)", "setting": "Chenopodium album; 15 g of ai/ha", "result": 90, "unit": "%"}, {"measurement": "Chenopodium album observed (% damage)", "setting": "Chenopodium album; 30 g of ai/ha", "result": 90, "unit": "%"}]}, {"smiles": "CCN(C(=O)n1nnn(-c2ccccc2Cl)c1=O)C1CCCCC1", "note": "[fentrazamide, 4-(2-chloro-phenyl)-N-cyclohexyl-N-ethyl-4,5-dihydro-5-oxo-1H-tetrazole-1-carboxamide, reference compound]", "values": [{"measurement": "efficacy in % damage, Compound (II) alone", "setting": "ELTTP; 135 g/ha", "result": 60, "unit": "%"}, {"measurement": "efficacy in % damage, Compound (II) alone", "setting": "LIDPY; 135 g/ha", "result": 60, "unit": "%"}, {"measurement": "efficacy in % damage, Compound (II) alone", "setting": "CYPDI", "result": 60, "unit": "%"}, {"measurement": "efficacy in % damage, Compound (II) alone", "setting": "ECHSS", "result": 70, "unit": "%"}, {"measurement": "efficacy in % damage, Compound (II) alone", "setting": "ROTIN; 135 g/ha", "result": 60, "unit": "%"}]}, {"smiles": "CC(C)N(C(=O)COc1nnc(C(F)(F)F)s1)c1ccc(F)cc1", "note": "[Flufenacet, N-(4-fluoro-phenyl)-N-i-propyl-2-(5-trifluoromethyl-1,3,4-thiadiazol-2-yl-oxy)-acetamide, reference compound]", "values": [{"measurement": "Amaranthus retroflexus observed (% damage)", "setting": "Amaranthus retroflexus; 125 g of ai/ha", "result": 60, "unit": "%"}, {"measurement": "Solanum nigrum observed (% damage)", "setting": "Solanum nigrum; 125 g of ai/ha", "result": 30, "unit": "%"}, {"measurement": "Abutilon theophrasti observed (% damage)", "setting": "Abutilon theophrasti; 125 g of ai/ha", "result": 0, "unit": "%"}, {"measurement": "Digitaria sanguinalis observed (% damage)", "setting": "Digitaria sanguinalis; 125 g of ai/ha", "result": 70, "unit": "%"}, {"measurement": "Chenopodium album observed (% damage)", "setting": "Chenopodium album; 125 g of ai/ha", "result": 0, "unit": "%"}]}]}
